PubChem BioAssay AID258 (DTP/NCI, 2004)
Values joined by “and” are separate entries in the source; they are usually repeats but may differ in a detail not shown here. Identical values can stand only once. Inconclusive results and toxic doses are left out.

Test system: CD2F1 mice, L1210 leukemia sc, survival T/C
Test: NCI In Vivo Anticancer Drug Screen. Data for tumor model L1210 Leukemia (subcutaneous) in CD2F1 (CDF1) mice
Conditions: endpoint: median survival time, higher = longer survival
Procedure, shortened: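 Compound given to mice bearing transplantable tumor. Survival or tumor size then recorded. Result expressed relative to vehicle-dosed control group as T/C.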

## O=NN(CCCl)C(=O)NC1CCCCC1
dose: 0.5 mg/kg/injection, schedule: Q01DX009 (ip), vehicle: saline + alcohol
  T/C: 98 % of control
dose: 0.5 mg/kg/injection, schedule: Q01DX009 (sc), vehicle: saline + alcohol
  T/C: 101 % of control and 106 % of control
dose: 1.0 mg/kg/injection, schedule: Q01DX009 (ip), vehicle: saline + alcohol
  T/C: 101 % of control
dose: 1.0 mg/kg/injection, schedule: Q01DX009 (sc), vehicle: saline + alcohol
  T/C: 105 % of control and 114 % of control
dose: 2.0 mg/kg/injection, schedule: Q01DX009 (sc), vehicle: saline + alcohol
  T/C: 119 % of control
dose: 3.0 mg/kg/injection, schedule: Q01DX Z (iv), vehicle: carboxymethylcellulose (CMC)
  T/C: 105 % of control and 112 % of control
dose: 3.0 mg/kg/injection, schedule: Q01DX Z (oral), vehicle: carboxymethylcellulose (CMC)
  T/C: 162 % of control
dose: 3.0 mg/kg/injection, schedule: Q01DX Z (sc), vehicle: carboxymethylcellulose (CMC)
  T/C: 118 % of control
dose: 4.0 mg/kg/injection, schedule: Q01DX009 (ip), vehicle: saline + alcohol
  T/C: 178 % of control and 186 % of control
dose: 5.0 mg/kg/injection, schedule: Q01DX Z (ip), vehicle: carboxymethylcellulose (CMC)
  T/C: 177 % of control and 181 % of control
dose: 5.0 mg/kg/injection, schedule: Q01DX Z (iv), vehicle: carboxymethylcellulose (CMC)
  T/C: 294 % of control
dose: 5.0 mg/kg/injection, schedule: Q01DX Z (oral), vehicle: carboxymethylcellulose (CMC)
  T/C: 493 % of control
dose: 5.0 mg/kg/injection, schedule: Q01DX Z (sc), vehicle: carboxymethylcellulose (CMC)
  T/C: 112 % of control and 155 % of control and 287 % of control
dose: 5.36 mg/kg/injection, schedule: Q01DX009 (sc), vehicle: saline + alcohol
  T/C: 323 % of control
dose: 8.0 mg/kg/injection, schedule: Q01DX009 (ip), vehicle: saline + alcohol
  T/C: 234 % of control and 261 % of control
dose: 8.4 mg/kg/injection, schedule: Q01DX Z (ip), vehicle: carboxymethylcellulose (CMC)
  T/C: 381 % of control and 383 % of control
dose: 8.4 mg/kg/injection, schedule: Q01DX Z (iv), vehicle: carboxymethylcellulose (CMC)
  T/C: 225 % of control and 261 % of control
dose: 8.4 mg/kg/injection, schedule: Q01DX Z (oral), vehicle: carboxymethylcellulose (CMC)
  T/C: 412 % of control
dose: 8.4 mg/kg/injection, schedule: Q01DX Z (sc), vehicle: carboxymethylcellulose (CMC)
  T/C: 106 % of control and 237 % of control and 300 % of control
dose: 10.7 mg/kg/injection, schedule: Q01DX009 (ip), vehicle: saline + alcohol
  T/C: 337 % of control
dose: 10.7 mg/kg/injection, schedule: Q01DX009 (sc), vehicle: saline + alcohol
  T/C: 378 % of control
dose: 12.0 mg/kg/injection, schedule: Q01DX009 (sc), vehicle: saline + alcohol
  T/C: 325 % of control
dose: 14.0 mg/kg/injection, schedule: Q01DX Z (ip), vehicle: carboxymethylcellulose (CMC)
  T/C: 255 % of control and 387 % of control
dose: 14.0 mg/kg/injection, schedule: Q01DX Z (iv), vehicle: carboxymethylcellulose (CMC)
  T/C: 183 % of control and 381 % of control
dose: 14.0 mg/kg/injection, schedule: Q01DX Z (oral), vehicle: carboxymethylcellulose (CMC)
  T/C: 255 % of control and 300 % of control
dose: 14.0 mg/kg/injection, schedule: Q07DX Z (sc), vehicle: carboxymethylcellulose (CMC)
  T/C: 112 % of control
dose: 15.0 mg/kg/injection, schedule: Q01DX009 (ip), vehicle: Klucel (hydroxypropylcellulose) (HPC)
  T/C: 220 % of control
dose: 16.0 mg/kg/injection, schedule: Q01DX009 (ip), vehicle: saline + alcohol
  T/C: 306 % of control and 340 % of control
dose: 16.0 mg/kg/injection, schedule: Q01DX009 (sc), vehicle: saline + alcohol
  T/C: 271 % of control and 284 % of control and 348 % of control
dose: 23.0 mg/kg/injection, schedule: Q01DX Z (ip), vehicle: carboxymethylcellulose (CMC)
  T/C: 177 % of control and 268 % of control
dose: 23.0 mg/kg/injection, schedule: Q01DX Z (iv), vehicle: carboxymethylcellulose (CMC)
  T/C: 155 % of control and 368 % of control
dose: 23.0 mg/kg/injection, schedule: Q01DX Z (oral), vehicle: carboxymethylcellulose (CMC)
  T/C: 212 % of control and 222 % of control
dose: 23.0 mg/kg/injection, schedule: Q01DX Z (sc), vehicle: carboxymethylcellulose (CMC)
  T/C: 156 % of control and 211 % of control and 268 % of control
dose: 23.0 mg/kg/injection, schedule: Q07DX Z (sc), vehicle: carboxymethylcellulose (CMC)
  T/C: 118 % of control
dose: 24.0 mg/kg/injection, schedule: Q01DX009 (ip), vehicle: saline + alcohol
  T/C: 184 % of control
dose: 24.0 mg/kg/injection, schedule: Q01DX009 (sc), vehicle: saline + alcohol
  T/C: 219 % of control
dose: 30.0 mg/kg/injection, schedule: Q01DX009 (ip), vehicle: Klucel (hydroxypropylcellulose) (HPC)
  T/C: 275 % of control
dose: 32.0 mg/kg/injection, schedule: Q01DX009 (sc), vehicle: saline + alcohol
  T/C: 173 % of control
dose: 39.0 mg/kg/injection, schedule: Q01DX Z (oral), vehicle: carboxymethylcellulose (CMC)
  T/C: 161 % of control
dose: 39.0 mg/kg/injection, schedule: Q01DX Z (sc), vehicle: carboxymethylcellulose (CMC)
  T/C: 312 % of control
dose: 64.0 mg/kg/injection, schedule: Q01DX009 (ip), vehicle: saline + alcohol
  T/C: 95 % of control
dose: 64.0 mg/kg/injection, schedule: Q01DX009 (sc), vehicle: saline + alcohol
  T/C: 107 % of control and 120 % of control
dose: 65.0 mg/kg/injection, schedule: Q01DX001 (sc), vehicle: carboxymethylcellulose (CMC)
  T/C: 200 % of control
dose: 65.0 mg/kg/injection, schedule: Q01DX Z (sc), vehicle: carboxymethylcellulose (CMC)
  T/C: 237 % of control
dose: 65.0 mg/kg/injection, schedule: Q07DX Z (sc), vehicle: carboxymethylcellulose (CMC)
  T/C: 475 % of control
dose: 108.0 mg/kg/injection, schedule: Q01DX001 (sc), vehicle: carboxymethylcellulose (CMC)
  T/C: 193 % of control
dose: 108.0 mg/kg/injection, schedule: Q01DX Z (oral), vehicle: carboxymethylcellulose (CMC)
  T/C: 122 % of control
dose: 108.0 mg/kg/injection, schedule: Q07DX Z (sc), vehicle: carboxymethylcellulose (CMC)
  T/C: 250 % of control
dose: 180.0 mg/kg/injection, schedule: Q01DX001 (sc), vehicle: carboxymethylcellulose (CMC)
  T/C: 362 % of control
dose: 180.0 mg/kg/injection, schedule: Q01DX Z (oral), vehicle: carboxymethylcellulose (CMC)
  T/C: 116 % of control
dose: 180.0 mg/kg/injection, schedule: Q07DX Z (sc), vehicle: carboxymethylcellulose (CMC)
  T/C: 193 % of control
dose: 300.0 mg/kg/injection, schedule: Q01DX001 (sc), vehicle: carboxymethylcellulose (CMC)
  T/C: 243 % of control

## CC(CN1CC(=O)NC(=O)C1)N1CC(=O)NC(=O)C1 (stereo unspecified)
dose: 1.25 mg/kg/injection, schedule: Q01DX009 (ip), vehicle: saline with Tween-80
  T/C: 119 % of control
dose: 1.88 mg/kg/injection, schedule: Q01DX009 (sc), vehicle: saline with Tween-80
  T/C: 113 % of control
dose: 2.5 mg/kg/injection, schedule: Q01DX009 (ip), vehicle: saline with Tween-80
  T/C: 114 % of control
dose: 15.0 mg/kg/injection, schedule: Q01DX009 (ip), vehicle: saline with Tween-80
  T/C: 159 % of control
dose: 15.0 mg/kg/injection, schedule: Q01DX009 (sc), vehicle: saline with Tween-80
  T/C: 178 % of control
dose: 15.0 mg/kg/injection, schedule: Q01DX009 (sc), vehicle: saline
  T/C: 124 % of control
dose: 20.0 mg/kg/injection, schedule: Q01DX009 (sc), vehicle: saline with Tween-80
  T/C: 156 % of control
dose: 30.0 mg/kg/injection, schedule: Q01DX009 (ip), vehicle: saline with Tween-80
  T/C: 178 % of control
dose: 35.0 mg/kg/injection, schedule: Q01DX009 (sc), vehicle: saline with Tween-80
  T/C: 191 % of control
dose: 40.0 mg/kg/injection, schedule: Q01DX009 (ip), vehicle: saline with Tween-80
  T/C: 165 % of control
dose: 40.0 mg/kg/injection, schedule: Q01DX009 (sc), vehicle: saline with Tween-80
  T/C: 186 % of control
dose: 45.0 mg/kg/injection, schedule: Q01DX009 (sc), vehicle: saline with Tween-80
  T/C: 190 % of control and 192 % of control
dose: 50.0 mg/kg/injection, schedule: Q01DX009 (sc), vehicle: saline with Tween-80
  T/C: 195 % of control
dose: 60.0 mg/kg/injection, schedule: Q01DX009 (sc), vehicle: saline with Tween-80
  T/C: 164 % of control
dose: 90.0 mg/kg/injection, schedule: Q01DX009 (ip), vehicle: saline with Tween-80
  T/C: 123 % of control
dose: 100.0 mg/kg/injection, schedule: Q01DX009 (sc), vehicle: saline with Tween-80
  T/C: 163 % of control
dose: 108.0 mg/kg/injection, schedule: Q04DX003 (sc), vehicle: Klucel (hydroxypropylcellulose) (HPC)
  T/C: 119 % of control and 122 % of control
dose: 120.0 mg/kg/injection, schedule: Q01DX009 (ip), vehicle: saline with Tween-80
  T/C: 158 % of control
dose: 120.0 mg/kg/injection, schedule: Q01DX009 (sc), vehicle: saline
  T/C: 157 % of control
dose: 180.0 mg/kg/injection, schedule: Q04DX003 (sc), vehicle: Klucel (hydroxypropylcellulose) (HPC)
  T/C: 122 % of control
dose: 240.0 mg/kg/injection, schedule: Q01DX009 (ip), vehicle: saline with Tween-80
  T/C: 97 % of control
dose: 240.0 mg/kg/injection, schedule: Q01DX009 (sc), vehicle: saline with Tween-80
  T/C: 86 % of control
dose: 300.0 mg/kg/injection, schedule: Q04DX003 (sc), vehicle: Klucel (hydroxypropylcellulose) (HPC)
  T/C: 153 % of control
dose: 833.0 mg/kg/injection, schedule: Q04DX003 (sc), vehicle: Klucel (hydroxypropylcellulose) (HPC)
  T/C: 111 % of control and 112 % of control
